Experimental data as given in US12077503B2, “Substituted cyclic amides and their use as herbicides” (FMC CORPORATION, priority 2015, dated 2024).

Experiments:
Assay type in all cases: in vivo
[1] = test system: redroot pigweed (Amaranthus retroflexus); test: Test G Post-Emergence Protocol; conditions: Amaranthus retroflexus, post-emergence, 312 h; for pest or weed control at 15.625 g/ha: 15.625 g ai/ha, evaluated after 13 days (100=total damage to plant; 0=no damage to plant), read-out: Pigweed, Redroot damage rating; for pest or weed control at 62.5 g/ha: 62.5 g ai/ha, read-out: Pigweed, Redroot damage rating (100=total damage to plant; 0=no damage to plant); for pest or weed control at 62.5 g/ha / pest or weed control at 250 g/ha: evaluated after 13 days; for pest or weed control at 250 g/ha: 250 g ai/ha, read-out: damage to plant, Pigweed, Redroot (100=total damage to plant; 0=no damage to plant)
Procedure, shortened: (§1)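 Eight days post-sowing, plants received a spray of test compound (acetone/water 50:50, 0.5% Tween 20) at 15.625, 62.5 or 250 g/ha. Glasshouse regime thereafter: 24/16 °C, 14 h light, 65% humidity. Assessment after 13 days on a 0–100 damage scale.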

[2] = test system: corn (Zea mays); test: Test G Post-Emergence Protocol; conditions: Zea mays, post-emergence, 312 h; for plant injury at 15.625 g/ha: 15.625 g ai/ha, evaluated after 13 days (100=total damage to plant; 0=no damage to plant), read-out: Corn damage rating; for plant injury at 62.5 g/ha: 62.5 g ai/ha, read-out: Corn damage rating (100=total damage to plant; 0=no damage to plant); for plant injury at 62.5 g/ha / plant injury at 250 g/ha: evaluated after 13 days; for plant injury at 250 g/ha: 250 g ai/ha, read-out: damage to plant, Corn (100=total damage to plant; 0=no damage to plant)
Procedure, shortened: as §1

[3] = test system: giant foxtail (Setaria faberi); test: Test G Post-Emergence Protocol; conditions: Setaria faberi, post-emergence, 312 h; for pest or weed control at 15.625 g/ha: 15.625 g ai/ha, evaluated after 13 days (100=total damage to plant; 0=no damage to plant), read-out: Foxtail, Giant damage rating; for pest or weed control at 62.5 g/ha: 62.5 g ai/ha, read-out: Foxtail, Giant damage rating (100=total damage to plant; 0=no damage to plant); for pest or weed control at 62.5 g/ha / pest or weed control at 250 g/ha: evaluated after 13 days; for pest or weed control at 250 g/ha: 250 g ai/ha, read-out: damage to plant, Foxtail, Giant (100=total damage to plant; 0=no damage to plant)
Procedure, shortened: as §1

[4] = test system: barnyardgrass (Echinochloa crus-galli); test: Test G Post-Emergence Protocol; conditions: Echinochloa crus-galli, post-emergence, 312 h; for pest or weed control at 15.625 g/ha: 15.625 g ai/ha, evaluated after 13 days (100=total damage to plant; 0=no damage to plant), read-out: Barnyardgrass damage rating; for pest or weed control at 62.5 g/ha: 62.5 g ai/ha, read-out: Barnyardgrass damage rating (100=total damage to plant; 0=no damage to plant); for pest or weed control at 62.5 g/ha / pest or weed control at 250 g/ha: evaluated after 13 days; for pest or weed control at 250 g/ha: 250 g ai/ha, read-out: damage to plant, Barnyardgrass (100=total damage to plant; 0=no damage to plant)
Procedure, shortened: as §1

[5] = test system: ivy-leaved morning glory (Ipomoea hederacea); test: Test G Post-Emergence Protocol; conditions: Ipomoea, post-emergence, 312 h; for pest or weed control at 15.625 g/ha: 15.625 g ai/ha, evaluated after 13 days (100=total damage to plant; 0=no damage to plant), read-out: Morningglory, Ivy-leaved damage rating; for pest or weed control at 62.5 g/ha: 62.5 g ai/ha, read-out: Morningglory, Ivy-leaved damage rating (100=total damage to plant; 0=no damage to plant); for pest or weed control at 62.5 g/ha / pest or weed control at 250 g/ha: evaluated after 13 days; for pest or weed control at 250 g/ha: 250 g ai/ha, read-out: damage to plant, Morningglory, Ivy-leaved (100=total damage to plant; 0=no damage to plant)
Procedure, shortened: as §1

[6] = test system: velvetleaf (Abutilon theophrasti); test: Test G Post-Emergence Protocol; conditions: Abutilon theophrasti, post-emergence, 312 h; for pest or weed control at 15.625 g/ha: 15.625 g ai/ha, evaluated after 13 days (100=total damage to plant; 0=no damage to plant), read-out: Velvetleaf damage rating; for pest or weed control at 62.5 g/ha: 62.5 g ai/ha, read-out: Velvetleaf damage rating (100=total damage to plant; 0=no damage to plant); for pest or weed control at 62.5 g/ha / pest or weed control at 250 g/ha: evaluated after 13 days; for pest or weed control at 250 g/ha: 250 g ai/ha, read-out: damage to plant, Velvetleaf (100=total damage to plant; 0=no damage to plant)
Procedure, shortened: as §1

[7] = test system: redroot pigweed (Amaranthus retroflexus); test: Test G Pre-Emergence Protocol; conditions: Amaranthus retroflexus, pre-emergence, 312 h, evaluated after 13 days; for pest or weed control at 15.625 g/ha: 15.625 g ai/ha; for pest or weed control at 15.625 g/ha / pest or weed control at 250 g/ha: read-out: Pigweed, Redroot damage rating (100=total damage to plant; 0=no damage to plant); for pest or weed control at 62.5 g/ha: 62.5 g ai/ha, 100=total damage to plant, 0=no damage to plant, read-out: plant damage rating, Pigweed, Redroot; for pest or weed control at 250 g/ha: 250 g ai/ha
Procedure, shortened: (§2)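 Glasshouse pre-emergence test: soil-sown seeds, sprayed after 1 d at 15.625, 62.5 or 250 g/ha. Conditions 24/16° C day/night, 14 h light, 65% humidity, watering twice daily. Rating 13 d post-spray (100 = total damage).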

[8] = test system: corn (Zea mays); test: Test G Pre-Emergence Protocol; conditions: Zea mays, pre-emergence, 312 h, evaluated after 13 days; for plant injury at 15.625 g/ha: 15.625 g ai/ha; for plant injury at 15.625 g/ha / plant injury at 250 g/ha: read-out: Corn damage rating (100=total damage to plant; 0=no damage to plant); for plant injury at 62.5 g/ha: 62.5 g ai/ha, 100=total damage to plant, 0=no damage to plant, read-out: plant damage rating, Corn; for plant injury at 250 g/ha: 250 g ai/ha
Procedure, shortened: as §2

[9] = test system: giant foxtail (Setaria faberi); test: Test G Pre-Emergence Protocol; conditions: Setaria faberi, pre-emergence, 312 h, evaluated after 13 days; for pest or weed control at 15.625 g/ha: 15.625 g ai/ha; for pest or weed control at 15.625 g/ha / pest or weed control at 250 g/ha: read-out: Foxtail, Giant damage rating (100=total damage to plant; 0=no damage to plant); for pest or weed control at 62.5 g/ha: 62.5 g ai/ha, 100=total damage to plant, 0=no damage to plant, read-out: plant damage rating, Foxtail, Giant; for pest or weed control at 250 g/ha: 250 g ai/ha
Procedure, shortened: as §2

[10] = test system: barnyardgrass (Echinochloa crus-galli); test: Test G Pre-Emergence Protocol; conditions: Echinochloa crus-galli, pre-emergence, 312 h, evaluated after 13 days; for pest or weed control at 15.625 g/ha: 15.625 g ai/ha, read-out: Barnyard grass damage rating (100=total damage to plant; 0=no damage to plant); for pest or weed control at 62.5 g/ha: 62.5 g ai/ha, 100=total damage to plant, 0=no damage to plant, read-out: plant damage rating, Barnyardgrass; for pest or weed control at 250 g/ha: 250 g ai/ha, read-out: Barnyardgrass damage rating (100=total damage to plant; 0=no damage to plant)
Procedure, shortened: as §2

[11] = test system: ivy-leaved morning glory (Ipomoea hederacea); test: Test G Pre-Emergence Protocol; conditions: Ipomoea, pre-emergence, 312 h, evaluated after 13 days; for pest or weed control at 15.625 g/ha: 15.625 g ai/ha, read-out: Morning-glory, Ivy-leaved damage rating (100=total damage to plant; 0=no damage to plant); for pest or weed control at 62.5 g/ha: 62.5 g ai/ha, 100=total damage to plant, 0=no damage to plant, read-out: plant damage rating, Morningglory, Ivy-leaved; for pest or weed control at 250 g/ha: 250 g ai/ha, read-out: Morningglory, Ivy-leaved damage rating (100=total damage to plant; 0=no damage to plant)
Procedure, shortened: as §2

[12] = test system: velvetleaf (Abutilon theophrasti); test: Test G Pre-Emergence Protocol; conditions: Abutilon theophrasti, pre-emergence, 312 h, evaluated after 13 days; for pest or weed control at 15.625 g/ha: 15.625 g ai/ha; for pest or weed control at 15.625 g/ha / pest or weed control at 250 g/ha: read-out: Velvetleaf damage rating (100=total damage to plant; 0=no damage to plant); for pest or weed control at 62.5 g/ha: 62.5 g ai/ha, 100=total damage to plant, 0=no damage to plant, read-out: plant damage rating, Velvetleaf; for pest or weed control at 250 g/ha: 250 g ai/ha
Procedure, shortened: as §2

SMILES	pest or weed control at 15.625 g/ha [1] [%]	pest or weed control at 62.5 g/ha [1] [%]	pest or weed control at 250 g/ha [1] [%]	plant injury at 15.625 g/ha [2] [%]	plant injury at 62.5 g/ha [2] [%]	plant injury at 250 g/ha [2] [%]	pest or weed control at 15.625 g/ha [3] [%]	pest or weed control at 62.5 g/ha [3] [%]	pest or weed control at 250 g/ha [3] [%]	pest or weed control at 15.625 g/ha [4] [%]	pest or weed control at 62.5 g/ha [4] [%]	pest or weed control at 250 g/ha [4] [%]	pest or weed control at 15.625 g/ha [5] [%]	pest or weed control at 62.5 g/ha [5] [%]	pest or weed control at 250 g/ha [5] [%]	pest or weed control at 15.625 g/ha [6] [%]	pest or weed control at 62.5 g/ha [6] [%]	pest or weed control at 250 g/ha [6] [%]	pest or weed control at 15.625 g/ha [7] [%]	pest or weed control at 62.5 g/ha [7] [%]	other results
Cc1cc(NC(=O)[C@@H]2C(=O)N(C)C[C@H]2c2ccc(C(F)(F)F)cc2)ccc1F (racemic) [Compound 1593]	0	0	0	0	10	10	0	10	70	0	0	20	0	0	0	0	0	0	0	0	pest or weed control at 250 g/ha [7]: 0%; plant injury at 15.625 g/ha [8]: 0%; plant injury at 62.5 g/ha [8]: 0%; plant injury at 250 g/ha [8]: 0%; pest or weed control at 15.625 g/ha [9]: 0%; pest or weed control at 62.5 g/ha [9]: 10%; pest or weed control at 250 g/ha [9]: 70%; pest or weed control at 15.625 g/ha [10]: 0%; pest or weed control at 62.5 g/ha [10]: 0%; pest or weed control at 250 g/ha [10]: 20%; pest or weed control at 15.625 g/ha [11]: 0%; pest or weed control at 62.5 g/ha [11]: 0%; pest or weed control at 250 g/ha [11]: 0%; pest or weed control at 15.625 g/ha [12]: 0%; pest or weed control at 62.5 g/ha [12]: 0%; pest or weed control at 250 g/ha [12]: 0%
CN1C[C@H](c2ccc(C(F)(F)F)cc2)[C@@H](C(=O)Nc2nccc(C(F)(F)F)c2F)C1=O (racemic) [Compound 1436]	0	0	0	0	0	0	0	0	0	0	0	0	0	0	0	0	0	0	0	0	pest or weed control at 250 g/ha [7]: 0%; plant injury at 15.625 g/ha [8]: 0%; plant injury at 62.5 g/ha [8]: 0%; plant injury at 250 g/ha [8]: 0%; pest or weed control at 15.625 g/ha [9]: 0%; pest or weed control at 62.5 g/ha [9]: 0%; pest or weed control at 250 g/ha [9]: 0%; pest or weed control at 15.625 g/ha [10]: 0%; pest or weed control at 62.5 g/ha [10]: 0%; pest or weed control at 250 g/ha [10]: 0%; pest or weed control at 15.625 g/ha [11]: 0%; pest or weed control at 62.5 g/ha [11]: 0%; pest or weed control at 250 g/ha [11]: 0%; pest or weed control at 15.625 g/ha [12]: 0%; pest or weed control at 62.5 g/ha [12]: 0%; pest or weed control at 250 g/ha [12]: 0%
